# Read-outs that look alike come from different tables or passages of the source.
# Legend:
# [1] = Effect of volatile aldehydes on amine-based malodor (headspace GC/MS); conditions: 1 μL aldehyde in 10 mL headspace vial
# Procedure: A 1 μL sample of each volatile aldehyde listed in Table 6 and each Accord (A, B, and C) listed in Tables 1 to 3 is pipeted into individual 10 mL silanized headspace vials. […] Repeat 4 times for each sample (2 for butylamine analysis and 2 for butanethiol analysis).
# For amine analysis, the samples are injected immediately into the system after the malodor is introduced.
# [2] = Effect of volatile aldehydes on sulfur-based malodor (headspace GC/MS); conditions: 30 minutes at room temperature, 1 μL aldehyde in 10 mL headspace vial
# Procedure: A 1 μL sample of each volatile aldehyde listed in Table 6 and each Accord (A, B, and C) listed in Tables 1 to 3 is pipeted into individual 10 mL silanized headspace vials. […] Repeat 4 times for each sample (2 for butylamine analysis and 2 for butanethiol analysis). […]
# Vapor pressure at 25° C. = type: physicochemical
# Procedure: Suitable acid catalysts have a VP, as reported by Scifinder, in the range of about 0.001 torr to about 38 torr, measured at 25° C., alternatively about 0.001 torr to about 14 torr, alternatively from about 0.001 to about 1, alternatively from about 0.001 to about 0.020, alternatively about 0.005 to about 0.020, alternatively about 0.010 to about 0.020.
# [3] = acid catalysts, as reported by Scifinder; cited from earlier work
Molecule,At least 20% butylamine reduction at 40 seconds? [1],At least 20% butanethiol reduction at 30 minutes? [2],"VP (torr) @25° C. (Vapor pressure at 25° C.; Table 1, materials of Accord A)","VP (torr) @25° C. (Vapor pressure at 25° C.; Table 2, materials of Accord B)","VP (torr) @25° C. (Vapor pressure at 25° C.; Table 3, materials of Accord C)",VP (torr) @25° C. [3]
CCOc1ccccc1C=O [2-ethoxy benzylaldehyde],Yes,Yes,,,,
"CC(C)=CCCC(C)CCOCC=O (centres unmarked) [Citronelyl Oxyacetaldehyde, Citronellyl oxyacetaldehyde]",No,No,,,,
"CC(C)c1cccc(C(C)CC=O)c1 (centres unmarked) [Florhydral, 3-(3-Isopropyl-phenyl)-butyraldehyde]",Yes,Yes,0.008 torr,0.008 torr,0.008 torr,
CCCCCCCCCCC=O [Undecyl aldehyde],Yes,No,,,,
"COc1ccc(C=O)cc1 [p-anisaldehyde, p-methoxybenzene aldehyde]",Yes,No,,,,
C=CC(C)CCC=C(C)CCC=O (centres unmarked) [Floral Super],Yes,Yes,0.030 torr,0.030 torr,0.030 torr,
CC(C)(C)C(=O)O [Trimethyl Acetic Acid],,,,,,0.907 torr
"O=CC=Cc1ccccc1 [Cinnamic aldehyde, 3-phenyl-2-propenal]",Yes,Yes,,,,
Cc1cc(C)cc(C(=O)O)c1 [Mesitylenic acid],,,,,,0.00211 torr
O=CO [Formic Acid],,,,,,36.5 torr
"CC(C)=CCCC(C)C=O (centres unmarked) [Melonal, 2,6-Dimethyl-5-Heptenal]",Yes,No,,0.670 torr,0.670 torr,
CC(C)CC=C(C=O)C(C)C [2-isopropyl-5-methyl-2-hexenal],Yes,Yes,,,,
CC(C)(C)c1ccc(C=O)cc1 [4-tertbutyl benzylaldehyde],Yes,No,,,,
"CC(C=O)Cc1ccc(C(C)C)cc1 (stereo not drawn) [Cymal, Alpha-methyl-p-isopropyl phenyl propyl aldehyde]",Yes,No,0.007 torr,0.007 torr,0.007 torr,
"COc1cc(C=O)cc(OC)c1OC [3,4,5 Trimethoxy Benzaldehyde]",No,No,,,,
COc1ccccc1C=O [o-anisaldehyde],Yes,Yes,0.032 torr,0.032 torr,0.320 torr,
CC(C=O)=Cc1ccco1 [2-methyl-3-(2-furyl)-propenal],No,No,,,,
O=C(O)c1ccccc1 [Benzoic acid],,,,,,0.014 torr
"CCCCCC(C=O)=Cc1ccccc1 [Amyl cinnamic aldehyde, alpha-Amylcinnamic aldehyde]",No,No,,,,
CCCCCCCCCCCC=O [Lauric aldehyde],Yes,No,,,,
Oc1ccccc1 [Phenol],,,,,,0.610 torr
"CC(C)=CCCC(C)CCCC(C)C=O (centres unmarked) [Adoxal, 2,6,10-Trimethyl-9-undecenal]",Yes,No,,0.007 torr,0.007 torr,
"CC(C=O)Cc1ccc2c(c1)OCO2 (stereo not drawn) [Helional, alpha-methyl-3,4-(methylenedioxy)-hydrocinnamaldehyde]",Yes,No,,,0.0005 torr,
"CCCC/C=C/C=C/C=O [Trans Trans 2,4-Nonadienal]",Yes,No,,,,
"CC(C=O)Cc1ccc(C(C)(C)C)cc1 (stereo not drawn) [P.T. Bucinal, 4-tert-butyl-alpha-methyl-hydrocinnamaldehyde]",Yes,No,,,,
"COC1CC2CC1C1CC(C=O)CC21 (centres unmarked) [Scentenal, octahydro-5-methoxy-4,7-Methano-1H-indene-2-carboxaldehyde]",,,0.010 torr,0.010 torr,0.010 torr,

Molecule,At least 20% butylamine reduction at 40 seconds? [1],At least 20% butanethiol reduction at 30 minutes? [2],"VP (torr) @25° C. (Vapor pressure at 25° C.; Table 1, materials of Accord A)","VP (torr) @25° C. (Vapor pressure at 25° C.; Table 2, materials of Accord B)","VP (torr) @25° C. (Vapor pressure at 25° C.; Table 3, materials of Accord C)",VP (torr) @25° C. [3]
CCCCCCCC(=O)O [Caprylic acid],,,,,,0.0222 torr
O=C(O)CCC(=O)O [Succinic acid],,,,,,0.0165 torr
O=Cc1ccccc1 [Benzylaldehyde],Yes,No,,,,
CCCCC/C=C/CCC=O [Trans-4-decenal],Yes,Yes,,,,
"C=CCCCCCCCCC=O [Intreleven Aldehyde, undec-10-en-1-al]",,,0.060 torr,0.060 torr,0.060 torr,
Cc1ccc(C=O)s1 [5-methyl-thiophene-carboxaldehyde],No,Yes,,,,
Cc1ccc(C(=O)O)s1 [5-Methyl thiophene carboxylic acid],,,,,,0.019 torr
"3,4-Trimethoxy-benzylaldehyde",No,No,,,,
"CC(C)(O)CCCC1=CCC(C=O)CC1 (centres unmarked) [Lyral, 4-(4-hydroxy-4-methylpentyl)-3-cyclohexene-1-carboxaldehyde]",Yes,No,,,,
"COc1cc(OC)c(OC)cc1C=O [2,4,5 Trimethoxy Benzaldehyde]",No,No,,,,
"CCCCCCCCCC(C)C=O (centres unmarked) [Methyl Nonyl Acetaldehyde, 2-methyl-1-undecanal]",No,No,,0.030 torr,0.030 torr,
CCC(=O)OC1CC2CC1C1CC=CC21 (centres unmarked) [Frutene],,,,,0.020 torr,
CC(=O)O [Acetic Acid],,,,,,13.9 torr
"CC(C)(C)c1ccc(CCC=O)cc1 [Bourgeonal, 4-t-butylbenzenepropionaldehyde]",No,Yes,,,0.004 torr,
"CCc1ccc(CC(C)(C)C=O)cc1 [Floralozone, para-ethyl-alpha,alpha-dimethyl Hydrocinnamaldehyde]",No,No,,0.005 torr,0.005 torr,
Cc1ccc(C=O)o1 [5-methyl furfural],Yes,Yes,,,,
CC1(C)C2CC=C(CCC=O)C1C2 (centres unmarked) [Pino acetaldehyde],Yes,Yes,,,,
O=Cc1cccs1 [Thiophene Carboxaldehyde],Yes,No,,,,
"CC1=CC(C)C(C=O)CC1 (centres unmarked) [Ligustral, 2,4-dimethyl-3-cyclohexene-1-carboxaldehyde]",Yes,No,,,,
CC(=O)OC1CC2CC1C1CC=CC21 (centres unmarked) [Flor Acetate],,,,,0.060 torr,
C=CC(C)(O)CCC=C(C)C (centres unmarked) [Linalool],,,,,0.050 torr,
CCCCCCCCCC=O [Decyl aldehyde],Yes,No,,,,
"CC(CC=O)CCCC(C)(C)O (centres unmarked) [Hydroxycitronellal, 7-hydroxy-3,7-dimethyl octan-1-al]",No,No,,,,
"COc1cc(OC)c(C=O)c(OC)c1 [2,4,6-Trimethoxy-benzylaldehyde]",No,No,,,,
C/C=C(\C)C(=O)O [Tiglic acid],,,,,,0.152 torr
